According to the NIST ThermoML archive (doi:10.1021/je800110r):
± gives the expanded uncertainty stated by the source.

Conditions: 293.15 K, Liquid, Vibrating tube method

CCCCCCCCCC [decane]
Conditions | mass density [kg/m3]
22074 kPa | 745.5 ± 2
22091 kPa | 745.6 ± 2
22110 kPa | 745.5 ± 2
22128 kPa | 745.6 ± 2
22143 kPa | 745.7 ± 2
22164 kPa | 745.5 ± 2
22179 kPa | 745.6 ± 2
22199 kPa | 745.6 ± 2
22217 kPa | 745.7 ± 2
22235 kPa | 745.7 ± 2
22253 kPa | 745.5 ± 2
22275 kPa | 745.8 ± 2
22300 kPa | 745.7 ± 2
22318 kPa | 745.7 ± 2
22336 kPa | 745.7 ± 2
22358 kPa | 745.8 ± 2
22373 kPa | 745.8 ± 2
22397 kPa | 745.8 ± 2
22412 kPa | 745.8 ± 2
22434 kPa | 745.7 ± 2
22452 kPa | 745.7 ± 2
22473 kPa | 745.8 ± 2
22498 kPa | 745.9 ± 2
22523 kPa | 745.9 ± 2
22542 kPa | 745.8 ± 2
22564 kPa | 746 ± 2
22583 kPa | 745.9 ± 2
22605 kPa | 745.9 ± 2
22624 kPa | 745.9 ± 2
22648 kPa | 745.8 ± 2
22667 kPa | 745.9 ± 2
22689 kPa | 746 ± 2
22711 kPa | 745.9 ± 2
22727 kPa | 746 ± 2
22746 kPa | 746 ± 2
22771 kPa | 746 ± 2
22787 kPa | 746 ± 2
22807 kPa | 746 ± 2
22830 kPa | 746.1 ± 2
22852 kPa | 746.1 ± 2
22866 kPa | 746 ± 2
22882 kPa | 746.2 ± 2
22899 kPa | 746.2 ± 2
22915 kPa | 746.2 ± 2
22934 kPa | 746.2 ± 2
22948 kPa | 746.2 ± 2
22970 kPa | 746.2 ± 2
22994 kPa | 746.1 ± 2
23011 kPa | 746.2 ± 2
23030 kPa | 746.2 ± 2
23047 kPa | 746.1 ± 2
23069 kPa | 746.1 ± 2
23086 kPa | 746.1 ± 2
23108 kPa | 746.2 ± 2
23127 kPa | 746.3 ± 2
23144 kPa | 746.2 ± 2
23167 kPa | 746.2 ± 2
23186 kPa | 746.2 ± 2
23206 kPa | 746.4 ± 2
23223 kPa | 746.3 ± 2
23246 kPa | 746.3 ± 2
23265 kPa | 746.4 ± 2
23285 kPa | 746.4 ± 2
23308 kPa | 746.2 ± 2
23328 kPa | 746.4 ± 2
23345 kPa | 746.3 ± 2
23362 kPa | 746.3 ± 2
23382 kPa | 746.3 ± 2
23402 kPa | 746.3 ± 2
23416 kPa | 746.3 ± 2
23434 kPa | 746.3 ± 2
23454 kPa | 746.4 ± 2
23472 kPa | 746.4 ± 2
23489 kPa | 746.5 ± 2
23509 kPa | 746.5 ± 2
23529 kPa | 746.5 ± 2
23547 kPa | 746.5 ± 2
23565 kPa | 746.5 ± 2
23582 kPa | 746.5 ± 2
23605 kPa | 746.6 ± 2
23632 kPa | 746.7 ± 2
23647 kPa | 746.6 ± 2
23668 kPa | 746.5 ± 2
23687 kPa | 746.7 ± 2
23704 kPa | 746.6 ± 2
23728 kPa | 746.7 ± 2
23755 kPa | 746.6 ± 2
23773 kPa | 746.6 ± 2
23790 kPa | 746.7 ± 2
23811 kPa | 746.7 ± 2
23826 kPa | 746.6 ± 2
23847 kPa | 746.7 ± 2
23875 kPa | 746.7 ± 2
23896 kPa | 746.8 ± 2
23917 kPa | 746.8 ± 2
23940 kPa | 746.7 ± 2
23964 kPa | 746.9 ± 2
23985 kPa | 746.9 ± 2
24004 kPa | 746.7 ± 2
24022 kPa | 747 ± 2
24046 kPa | 746.8 ± 2
24065 kPa | 746.8 ± 2
24089 kPa | 746.8 ± 2
24108 kPa | 746.9 ± 2
24126 kPa | 746.9 ± 2
24148 kPa | 746.9 ± 2
24170 kPa | 746.9 ± 2
24194 kPa | 746.9 ± 2
24219 kPa | 747 ± 2
24237 kPa | 747 ± 2
24256 kPa | 746.9 ± 2
24284 kPa | 747 ± 2
24309 kPa | 747 ± 2
24334 kPa | 747 ± 2
24356 kPa | 747.1 ± 2
24374 kPa | 747 ± 2
24393 kPa | 747 ± 2
24416 kPa | 747 ± 2
24435 kPa | 747.1 ± 2
24454 kPa | 747.1 ± 2
24479 kPa | 747.1 ± 2
24498 kPa | 747.1 ± 2
24526 kPa | 747.1 ± 2
24545 kPa | 747.1 ± 2
24574 kPa | 747.2 ± 2
24590 kPa | 747.2 ± 2
24613 kPa | 747.1 ± 2
24632 kPa | 747.2 ± 2
24655 kPa | 747.3 ± 2
24678 kPa | 747.2 ± 2
24700 kPa | 747.2 ± 2
24720 kPa | 747.2 ± 2
24739 kPa | 747.2 ± 2
24759 kPa | 747.4 ± 2
24779 kPa | 747.4 ± 2
24808 kPa | 747.3 ± 2
24834 kPa | 747.2 ± 2
24857 kPa | 747.4 ± 2
24883 kPa | 747.4 ± 2
24899 kPa | 747.3 ± 2
24926 kPa | 747.4 ± 2
24943 kPa | 747.5 ± 2
24972 kPa | 747.3 ± 2
24999 kPa | 747.4 ± 2
25019 kPa | 747.5 ± 2
25048 kPa | 747.5 ± 2
25068 kPa | 747.5 ± 2
25092 kPa | 747.5 ± 2
25116 kPa | 747.5 ± 2
25139 kPa | 747.5 ± 2
25163 kPa | 747.5 ± 2
25187 kPa | 747.6 ± 2
25218 kPa | 747.7 ± 2
25238 kPa | 747.6 ± 2
25269 kPa | 747.5 ± 2
25300 kPa | 747.7 ± 2
25320 kPa | 747.7 ± 2
25345 kPa | 747.6 ± 2
25370 kPa | 747.6 ± 2
25391 kPa | 747.7 ± 2
25419 kPa | 747.6 ± 2
25442 kPa | 747.7 ± 2.1
25468 kPa | 747.8 ± 2.1
25493 kPa | 747.7 ± 2.1
25512 kPa | 747.6 ± 2.1
25535 kPa | 747.8 ± 2.1
25557 kPa | 747.8 ± 2.1
25577 kPa | 747.8 ± 2.1
25599 kPa | 747.7 ± 2.1
25615 kPa | 747.7 ± 2.1
25638 kPa | 747.9 ± 2.1
25657 kPa | 747.8 ± 2.1
25680 kPa | 747.8 ± 2.1
25699 kPa | 747.8 ± 2.1
25720 kPa | 748 ± 2.1
25746 kPa | 747.9 ± 2.1
25766 kPa | 747.9 ± 2.1
25788 kPa | 747.9 ± 2.1
25808 kPa | 747.9 ± 2.1
25835 kPa | 748 ± 2.1
25861 kPa | 748 ± 2.1
25887 kPa | 748 ± 2.1
25907 kPa | 748.1 ± 2.1
25933 kPa | 747.9 ± 2.1
25959 kPa | 748 ± 2.1
25986 kPa | 748 ± 2.1
26006 kPa | 748.1 ± 2.1
26023 kPa | 748 ± 2.1
26040 kPa | 748.1 ± 2.1
26070 kPa | 748.1 ± 2.1
26093 kPa | 748.1 ± 2.1
26117 kPa | 748.1 ± 2.1
26145 kPa | 748.1 ± 2.1
26165 kPa | 748.2 ± 2.1
26192 kPa | 748.1 ± 2.1
26216 kPa | 748.1 ± 2.1
26243 kPa | 748.1 ± 2.1
26263 kPa | 748.4 ± 2.1
26291 kPa | 748.2 ± 2.1
26315 kPa | 748.2 ± 2.1
26335 kPa | 748.3 ± 2.1
26352 kPa | 748.3 ± 2.1
26370 kPa | 748.3 ± 2.1
26390 kPa | 748.4 ± 2.1
26408 kPa | 748.3 ± 2.1
26432 kPa | 748.3 ± 2.1
26453 kPa | 748.3 ± 2.1
26483 kPa | 748.4 ± 2.1
26516 kPa | 748.4 ± 2.1
26537 kPa | 748.4 ± 2.1
26568 kPa | 748.4 ± 2.1
26586 kPa | 748.5 ± 2.1
26607 kPa | 748.4 ± 2.1
26631 kPa | 748.5 ± 2.1
26652 kPa | 748.5 ± 2.1
26677 kPa | 748.4 ± 2.1
26694 kPa | 748.5 ± 2.1
26719 kPa | 748.4 ± 2.1
26741 kPa | 748.5 ± 2.1
26769 kPa | 748.5 ± 2.1
26795 kPa | 748.5 ± 2.1
26816 kPa | 748.5 ± 2.1
26841 kPa | 748.6 ± 2.1
26863 kPa | 748.5 ± 2.1
26885 kPa | 748.6 ± 2.1
26913 kPa | 748.7 ± 2.1
26935 kPa | 748.7 ± 2.1
26964 kPa | 748.7 ± 2.1
26989 kPa | 748.6 ± 2.1
27011 kPa | 748.7 ± 2.1
27036 kPa | 748.7 ± 2.1
27054 kPa | 748.6 ± 2.1
27077 kPa | 748.7 ± 2.1
27103 kPa | 748.7 ± 2.1
27128 kPa | 748.8 ± 2.1
27154 kPa | 748.7 ± 2.1
27173 kPa | 748.7 ± 2.1
27202 kPa | 748.8 ± 2.1
27232 kPa | 748.8 ± 2.1
27257 kPa | 748.8 ± 2.1
27280 kPa | 748.8 ± 2.1
27309 kPa | 748.8 ± 2.1
27328 kPa | 748.8 ± 2.1
27362 kPa | 749 ± 2.1
27385 kPa | 748.9 ± 2.1
27419 kPa | 748.9 ± 2.1
27438 kPa | 749 ± 2.1
27475 kPa | 749 ± 2.1
27501 kPa | 749 ± 2.1
27523 kPa | 749 ± 2.1
27557 kPa | 749.1 ± 2.1
27579 kPa | 749.1 ± 2.1
27609 kPa | 749.1 ± 2.1
27632 kPa | 749.1 ± 2.1
27667 kPa | 749.1 ± 2.1
27690 kPa | 749.2 ± 2.1
27713 kPa | 749.1 ± 2.1
27748 kPa | 749.3 ± 2.1
27770 kPa | 749.1 ± 2.1
27805 kPa | 749.2 ± 2.1
27827 kPa | 749.1 ± 2.1
27850 kPa | 749.2 ± 2.1
27877 kPa | 749.2 ± 2.1
27896 kPa | 749.1 ± 2.1
27924 kPa | 749.3 ± 2.1
27959 kPa | 749.2 ± 2.1
27983 kPa | 749.3 ± 2.1
28006 kPa | 749.4 ± 2.1
28033 kPa | 749.3 ± 2.1
28056 kPa | 749.4 ± 2.1
28076 kPa | 749.4 ± 2.1
28099 kPa | 749.3 ± 2.1
28123 kPa | 749.3 ± 2.1
